# In patent US20240166765A1, “INFLAMMATORY DISEASE TREATMENT USING ANTI-TISSUE FACTOR ANTIBODIES” (Iconic Therapeutics LLC, priority 2020, published 2024):
# Square brackets hold non-standard residues; d marks the D form. Peptide text beside a SMILES is read from it. * marks the point of attachment. Dolaproine = CO[C@@H]([C@@H]1CCCN1)[C@@H](C)C(=O)O; Dil = CC[C@H](C)[C@H](NC)[C@@H](CC(=O)O)OC; X1 = C[C@@H](N*)[C@@H](O)c1ccccc1; NMeV = CN[C@H](C(=O)O)C(C)C
# Columns and labels:
# [1] = tested on: chimeric human-rat TF constructs expressed on HEK293 cells; assay: Epitope binning, chimeric TF construct mapping (live cell staining assay); type: binding
# Method: To establish binding of the anti-human TF antibodies to the various TF constructs, HEK293 cells were transfected with a DNA plasmid that co-expresses the TF construct and a green fluorescent protein marker. For a subset of the antibodies, an antibody titration (a 12-point 1:3 dilution series starting at 250 nM) was evaluated on select TF constructs (See international PCT application PCT/US2019/012427 and U.S. utility application Ser. No. 16/959,652, incorporated herein by reference in their entirety). […] Two days after transfection, cells were collected from the tissue culture plate, stained with 15 μg/ml of the indicated anti-TF antibody, washed, stained with anti-human IgG-Fc Alexa Fluor 647 polyclonal antibody, washed, and stained with the viability dye 4′,6-Diamidino-2-Phenylindole, Dihydrochloride. Upon acquisition of 80,000 live events on a flow cytometer, live cells marked with the fluorescent marker were analyzed for the degree of staining by the anti-TF antibody. […] As used herein, the term “live cell staining assay” refers to the antibody binding assay used in this example.
# When “Percentage antibody binding to TF construct relative to hTF” in Tables 51 and 52 was less than 50%, the antibody was considered a non-binder (0) in Tables 53 and 54.
# [2] = tested on: thrombin generation (relipidated TF in normal pooled plasma); assay: Thrombin generation assay (TGA) without antibody pre-incubation; type: biochemical, human; details: Table 44
# Method: (§1) The TGA assay was performed using the calibrated-automated-thrombogram (CAT) instrument manufactured and distributed by STAGO. The test method design was equivalent to a standard CAT assay measurement, except that the plasma source was NPP in citrate/CTI. […] Relipidated TF was added to a 96-well assay plate, followed by addition of the antibody/NPP mixture. After a 10-min incubation or directly after combining the relipidated TF with antibody/NPP, thrombin generation was initiated by the addition of calcium and the thrombin substrate. The STAGO software was used to report the following parameters: Peak IIa (highest thrombin concentration generated [nM]); Lag Time (time to IIa generation [min]); ETP (endogenous thrombin potential, area under the curve [nM×min]); and ttPeak (time to Peak IIa [min]).
# as §1, with “was normal pooled plasma (NPP)” for “was NPP”, “in citrate supplemented with corn trypsin inhibitor (citrate/CTI).” for “in citrate/CTI.”
# (§2) TGA assay was performed using the calibrated-automated-thrombogram (CAT) instrument manufactured and distributed by STAGO (Diagnostica Stago SAS, Asnieres sur Seine, France). […] The anti-TF antibodies were titrated at 0, 10, 50 and 100 nM and mixed with NPP in citrate/CTI. Relipidated TF was added to a 96-well assay plate, followed by addition of the antibody/NPP mixture. After a 10-min incubation or directly after combining the relipidated TF with antibody/NPP, thrombin generation was initiated by the addition of calcium and the thrombin substrate. The STAGO software was used to report the following parameters: Peak IIa (highest thrombin concentration generated on the thrombin generation curve [nM]); Lag Time (time from assay start to the moment 10 nM of thrombin is formed [min]); ETP (endogenous thrombin potential, area under the curve [nM×min]); and ttPeak (time from assay start to Peak IIa [min]). […] As used herein, the term “thrombin generation assay” (TGA) refers to the TGA used in this example.
# [3] = tested on: thrombin generation (relipidated TF in normal pooled plasma); assay: Thrombin generation assay (TGA) with 10 min antibody pre-incubation; type: biochemical, human
# Method: as §1
# as §1, with “was normal pooled plasma (NPP)” for “was NPP”, “in citrate supplemented with corn trypsin inhibitor (citrate/CTI).” for “in citrate/CTI.”
# as §2
# [4] = tested on: HUVECs; assay: G2/M arrest (phospho-Histone H3) in HUVECs; type: cell-based, human; details: HCT-116 cells and HUVECs
# Method: To further understand the resistance of endothelial cells to anti-TF ADCs, cell cycle progression was evaluated 24 h after addition of the cytokines and TF-specific ADCs. Arrest at the G2/M phase of the cell cycle was analyzed as previously described in Theunissen et al, Methods Enzymol, 2006, 409:251-284. Briefly, low-passage HUVECs (Lifeline Cell Technologies, Frederick, MD, USA), propagated in VascuLife VEGF-Mv Endothelial media (Lifeline Cell Technologies), and HCT-116 cells were seeded on 12-well plates. The next day, media was removed and replaced with fresh media (no cytokines) or media containing 5 […] IL1-beta, 25 ng/mL TNF-alpha and 50 ng/mL VEGF (with cytokines). A titration of MMAE-linked ADCs or free MMAE was added to the cells. After 24 h of treatment, cells were fixed in ice-cold 70% ethanol. Subsequently, the cells were washed with flow cytometry buffer (PBS, 1% FBS, 0.1% Triton) and stained for 1 h with a 1:100 dilution of phospho-Histone H3 (Ser10) (D2C8 PE Conjugate, Cell Signaling Technology). After 2 washes, the cells were treated for 20 min with 100 μg/mL PureLink RNAse A (ThermoFisher Scientific), followed by the addition of the viability dye TO-PRO-3 Iodide (ThermoFisher Scientific). 40,000 events were collected on a Novocyte flow cytometer. In the Flowjo data analysis software cell doublets and aneuploid cells were excluded. […]
# [5] = tested on: DSS-colitis model, C57BL/6 mice; assay: DSS-colitis model (2.5% DSS); type: in vivo, mouse
# Text: In a colitis model, the administration of dextran sulfate sodium (DSS) causes colitis-like pathologies due to toxicity to colonic epithelial cells, which leads to a compromised mucosal function and infiltration of neutrophils, macrophages and lymphocytes. It results in loss of epithelial barrier function, secretion of proinflammatory cytokines and chemokines, and the influx of cells with cytotoxic potential, such as neutrophils and inflammatory macrophages. It is not considered a T-cell-mediated process in the art.
# On Day 0 of the study, 8-12 week old male C57BL/6 mice received either sterile water ad libitum (Group 1, n=5) or 2.5% (w/v) DSS dissolved into sterile water ad libitum (Groups 2-5, n=10 mice per group).
# On Day 8, all animals received sterile water for the remainder of the experiment and were euthanized on day 10.
# Throughout the study clinical observations were made daily. Body weight was measured and recorded daily (from Day 0 to Day 10). Body condition was also evaluated visually daily using the scoring system illustrated in FIG. 2. The stool consistency was determined qualitatively and blood in stool was measured daily using a hemoccult stool bleeding test. […]
# Following euthanasia, the animal was measured (length determined) and weighed. Weight/length ratio was calculated for each animal. The animals were dissected and the weight of their spleens was determined. […]
# [6] = tested on: LPS-induced acute lung injury model, BALB/c mice; assay: LPS-induced acute lung injury model; type: in vivo, mouse; details: end of the study; 431D8 1 mg/kg IP; dexamethasone 3 mg/kg IP
# Method: For this study, 48 male BALB/c mice were randomly and prospectively assigned to five groups: a group of six (n=6), a group of twelve (n=12), and three groups of ten (n=10 per group) animals each. On Day 0, animals in Groups 2-5 were dosed according to Table 63, 60 minutes prior to LPS administration. […] Animals were then released into a recovery cage until they woke up.
# All animals were weighed and evaluated for respiratory distress daily (defined as an increase in respiratory rate and/or obvious respiratory effort). Animals with severe respiratory distress, or animals that lost greater than 20% of their total starting body weight, were euthanized within 2 hours of observation.
# At 48 hours post-LPS challenge all animals were sacrificed with an overdose of xylazine and bronco-alveolar lavage (BAL) of the right lung only was performed (by tying off the left lung) for total and differential cell counts as well as total protein quantification and cytokine quantitation by Luminex. Lungs were then weighed (total lung weight and right lung weight). The right lung was frozen in liquid nitrogen and stored at −80° C. […] All slides were evaluated by a board-certified veterinary pathologist who used a scoring system to evaluate extent of lung injury and inflammation.
molecule,measurement,setting,value
5G9: previously described TF-specific antibody,Antibody binding to TF construct,"[1]; Table 53, construct rTF","0 (less than 50%, the antibody was considered a non-binder (0))"
same,Antibody binding to TF construct,"[1]; Table 54, construct rTF","0 (less than 50%, the antibody was considered a non-binder (0))"
same,Constructs not bound by antibody,[1]; chimeric human-rat TF constructs,"rTF, h1-107_r, h108-219_r, h159-219_r, h159-189_r, h159-174_r, h167-174_r, h190-219_r"
same,Antibody binding to TF construct,"[1]; construct h78-107_r (21), human segment replaced by rat segment","1 (between 50% and 150%, the antibody was considered a binder (1))"
same,Antibody binding to TF construct,"[1]; construct h108-219_r (46), human segment replaced by rat segment","0 (less than 50%, the antibody was considered a non-binder (0))"
same,Antibody binding to TF construct,"[1]; construct h159-219_r (27), human segment replaced by rat segment","0 (less than 50%, the antibody was considered a non-binder (0))"
same,Antibody binding to TF construct,"[1]; construct r141-194_h (rat amino acid segment replaced by human segment, 20 amino acid changes)","0 (less than 50%, the antibody was considered a non-binder (0))"
same,Percent antibody binding to TF construct relative to hTF,"[1]; construct r141-194_h (rat amino acid segment replaced by human segment, 20 amino acid changes), 15 μg/ml antibody",32%
same,ETP,[2]; Ab conc. 10 nM,1176 nM·min
10H10: previously described TF-specific antibody [reference compound],ETP,[3]; Ab conc. 10 nM,1807 nM·min
same,ETP,[3]; Ab conc. 50 nM,1754 nM·min
same,ETP,[3]; Ab conc. 100 nM,1795 nM·min
same,ETP,[2]; Ab conc. 10 nM,2036 nM·min
same,ETP,[2]; Ab conc. 50 nM,1978 nM·min
same,ETP,[2]; Ab conc. 100 nM,1945 nM·min
"CC[C@H](C)[C@@H]([C@@H](CC(=O)N1CCC[C@H]1[C@H](OC)[C@@H](C)C(=O)N[C@H](C)[C@@H](O)c1ccccc1)OC)N(C)C(=O)[C@@H](NC(=O)[C@@H](NC)C(C)C)C(C)C [MMAE, monomethyl auristatin E] (H-[NMeV]V[Dil][Dolaproine]-X1)",phosphorylation of histone H3,[4],increase the phosphorylation of histone H3 to a similar extent in both HCT-116 cells and HUVECs
"Cyclosporine [CsA, reference compound]",body condition score,[5]; after Day 7,most significant deterioration in body condition
same,weight loss relative to baseline,"[5]; by Day 4, CsA 80 mg/kg once daily oral gavage",~20%
Dexamethasone [reference compound],weight loss relative to baseline,[6],about 2%
